In this experiment the target is T1, truncated human beta-secretase (residues 1-458, His6-tagged at the C-terminus) (Homo sapiens, UniProt P56817).
T1 construct: truncated human beta-secretase (residues 1-458, His6-tagged at the C-terminus); His6 (C); made in house; host or cells: insect cells D. melanogaster S2 (baculovirus expression system (so in the source))
Description: BACE fluorescence quench assay. The experiment is classed as biochemical. As for the experimental part:
The assay was performed at room temperature in 96-well white opaque Optiplates aque Optiplates (PerkinElmer, Waltham, Mass.) in a total volume of 200 μl of the incubation mixture containing 50 mM sodium acetate buffer, pH 4.5, 0.4 μM FRET substrate, 2.4 nM enzyme, 5% DMSO, and 0.05% Brij-35. The tested compounds were serially diluted in DMSO and pre-incubated with the substrate. The reaction was started by addition of enzyme, and the progress of the reaction was followed by measuring fluorescence with an excitation wavelength of 480 nm and an emission wavelength of 520 nm. Ten measurements were taken every 5-10 min, and the intensity of fluorescence was regressed against time in order to derive velocities of reaction in all 96 wells. […] IC50 values were calculated by fitting percent inhibition vs. inhibitor concentration into a four-parametric logistic model using XLFit software (IDBS, Guildford, UK).

Setting [1] is: in vitro enzyme activity, BACE fluorescence assay, pH 4.5, read-out: IC50.

In patent US8450308B2 (Vitae Pharmaceuticals, Inc., priority 2008, dated 2013) one finds IC50 data, which are given here for 13 molecules.

Like-named read-outs stand apart in the source and are kept apart here.

T1 sequence (P56817 22-458): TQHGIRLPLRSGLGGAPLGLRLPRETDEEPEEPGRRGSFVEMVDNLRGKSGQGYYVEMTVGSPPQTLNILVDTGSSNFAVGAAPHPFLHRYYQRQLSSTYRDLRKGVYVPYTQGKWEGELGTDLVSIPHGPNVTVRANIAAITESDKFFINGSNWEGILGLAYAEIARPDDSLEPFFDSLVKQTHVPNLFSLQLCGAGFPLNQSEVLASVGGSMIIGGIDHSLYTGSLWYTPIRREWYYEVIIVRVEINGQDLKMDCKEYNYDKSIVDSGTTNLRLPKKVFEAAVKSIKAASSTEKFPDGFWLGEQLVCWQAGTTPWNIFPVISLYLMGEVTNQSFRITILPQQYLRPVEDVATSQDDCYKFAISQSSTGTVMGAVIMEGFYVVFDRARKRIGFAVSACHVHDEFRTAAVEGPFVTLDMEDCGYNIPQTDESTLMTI

With `CN1C(=O)[C@@]2(C[C@H](c3ccccc3)Oc3ccc(-c4cccc(C#N)c4)cc32)N=C1N` (racemic) [Compound 2a, 3-(2′-amino-1′-methyl-5′-oxo-2-phenyl-1′,5′-dihydrospiro[chroman-4,4′-imidazole]-6-yl)benzonitrile], the IC50 under setting [1] was 1 to 100 nM.

As to `CN1C(=O)[C@@]2(C[C@H](c3ccccc3)Oc3ccc(Br)cc32)N=C1N` (racemic) [Compound 44a, Trans-2′-amino-6-bromo-1′-methyl-2-phenylspiro[chroman-4,4′-imidazol]-5′(1′H)-one], the IC50 is 5000 to 10000 nM.

For `CN1O[C@@]2(C[C@H]([C@@H]3CCCOC3)Oc3ccc(-c4cc(F)cc(F)c4)cc32)N=C1N` (racemic) [Compound 326, (2S,4S/2R,4R)-6-(3,5-difluorophenyl)-2′-methyl-2-((S/R)-tetrahydro-2H-pyran-3-yl)-2′H-spiro[chroman-4,5′-[1,2,4]oxadiazol]-3′-amine], the IC50 under setting [1] was 100 to 500 nM.

In turn, `CN1C(=O)[C@@]2(C[C@@H](c3ccccc3)Oc3ccc(Br)cc32)N=C1N` (relative stereo) [Compound 44b, Cis-2′-amino-6-bromo-1′-methyl-2-phenylspiro[chroman-4,4′-imidazol]-5′(1′H)-one] showed an IC50 of 5000 to 10000 nM.

For the molecule `CN1O[C@@]2(C[C@@]3(CCOC3)Oc3ccc(-c4cccc(C#N)c4)cc32)N=C1N` (relative stereo) [Compound 113a], under setting [1], the IC50 fell in the range of 500 to 1000 nM.

For `CN1C(=O)[C@@]2(CC(c3cccs3)Oc3ccc(-c4cccc(C#N)c4)cc32)N=C1N` (stereo in doubt) [Compound 8a, 3-((2S,4S)-2′-amino-1′-methyl-5′-oxo-2-(thiophen-2-yl)-1′,5′-dihydrospiro[chroman-4,4′-imidazole]-6-yl)benzonitrile], under setting [1], the IC50 was 100 to 500 nM.

As for `CN1C(=O)[C@@]2(CC(c3cccs3)Oc3ccc(-c4cccc(C#N)c4)cc32)N=C1N` (stereo in doubt) [Compound 8b, 3-((2R,4S)-2′-Amino-1′-methyl-5′-oxo-2-(thiophen-2-yl)-1′,5′-dihydrospiro[chroman-4,4′-imidazole]-6-yl)-benzonitrile], the concentration for half-maximal inhibition (IC50) under setting [1] is 1000 to 5000 nM.

`CN1O[C@]2(C[C@@H](C[C@H]3CCCO3)Oc3ccc(-c4cccc(C#N)c4)cc32)N=C1N` (stereo in doubt) [Compound 360, 3-(3′-amino-2′-methyl-2-((tetrahydrofuran-2-yl)methyl)-2′H-spiro[chroman-4,5′-[1,2,4]oxadiazole]-6-yl)benzonitrile]: the IC50 under setting [1] was in the range of 500 to 1000 nM.

On to `CN1O[C@]2(C[C@H](CC3CCCO3)Oc3ccc(-c4cccc(C#N)c4)cc32)N=C1N` (stereo in doubt) [Compound 366, 3-(3′-amino-2′-methyl-2-((tetrahydrofuran-2-yl)methyl)-2′H-spiro[chroman-4,5′-[1,2,4]oxadiazole]-6-yl)benzonitrile], for which, under setting [1], the IC50 lay in the range of 500 to 1000 nM.

For `CN1O[C@]2(C[C@@H](C[C@@H]3CCCO3)Oc3ccc(-c4cccc(C#N)c4)cc32)N=C1N` (stereo in doubt) [Compound 367, 3-(3′-amino-2′-methyl-2-((tetrahydrofuran-2-yl)methyl)-2′H-spiro[chroman-4,5′-[1,2,4]oxadiazole]-6-yl)benzonitrile], the IC50 under setting [1] was 500 to 1000 nM.

As for `CN1C(=O)C2(CC(C3CCCOC3)Oc3ccc(-c4cccc(C#N)c4)cc32)N=C1N` (stereo not shown) [Compound 1, 3-(2′-amino-1′-methyl-5′-oxo-2-(tetrahydro-2H-pyran-3-yl)-1′,5′-dihydrospiro[chroman-4,4′-imidazole]-6-yl)benzonitrile], the IC50 under setting [1] fell in the range of 1 to 100 nM.

Turning to `CN1C(=O)C2(CC(c3ccccc3)Oc3ccc(-c4cccc(C#N)c4)cc32)N=C1N` (stereo not shown) [Compound 2, 3-(2′-amino-1′-methyl-5′-oxo-2-phenyl-1′,5′-dihydrospiro[chroman-4,4′-imidazole]-6-yl)benzonitrile], the 50% inhibitory concentration (IC50) under setting [1] was in the range of 100 to 500 nM.

As to `CN1C(=O)[C@@]2(C[C@@H](c3ccccc3)Oc3ccc(-c4cccc(C#N)c4)cc32)N=C1N` [Compound 2b], the IC50 under setting [1] lay within 1 to 100 nM.

The term IC50 denotes the concentration needed to halve the response being measured.
